Experimental data as given in patent US4387100A, “Substituted phenoxy-aminopropanol derivatives” (Hoffmann-La Roche Inc., priority 1980, dated 1983).
Read-outs that look alike come from different tables or passages of the source.

How the values were obtained:
[1] = biological target: T1, β1-adrenoceptors (Rattus norvegicus, UniProt P18090); experiment: 50% reduction in isoprenaline-induced tachycardia (β1-blocking activity) in rats, i.v.; format: in vivo; settings: iv, read-out: ED50 (HR)
T1 construct: this activity is measured in rats by determining the dosage; from tissue; host or cells: living rat, i.v. dosing; read-out heart rate (isoprenaline-induced tachycardia)
T1 sequence (P18090 whole entry): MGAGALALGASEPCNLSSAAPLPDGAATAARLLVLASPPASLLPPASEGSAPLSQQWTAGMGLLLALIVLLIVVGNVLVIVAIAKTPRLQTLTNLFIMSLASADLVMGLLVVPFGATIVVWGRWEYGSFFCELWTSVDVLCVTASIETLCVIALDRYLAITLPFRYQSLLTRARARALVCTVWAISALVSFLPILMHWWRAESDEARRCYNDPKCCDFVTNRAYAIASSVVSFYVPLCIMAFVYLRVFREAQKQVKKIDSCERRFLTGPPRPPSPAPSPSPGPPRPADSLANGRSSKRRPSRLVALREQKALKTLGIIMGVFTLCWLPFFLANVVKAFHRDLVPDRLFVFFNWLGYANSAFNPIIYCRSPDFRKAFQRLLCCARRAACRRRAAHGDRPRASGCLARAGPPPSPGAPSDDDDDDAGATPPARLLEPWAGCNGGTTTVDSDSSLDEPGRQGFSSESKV

[2] = biological target: T2, β2-adrenoceptors (Rattus norvegicus, UniProt P10608); experiment: 50% reduction in isoprenaline-induced depressor responses (β2-blocking activity) in rats, i.v.; format: in vivo; settings: iv, dosage for 50% reduction in isoprenaline-induced depressor responses
T2 construct: this activity is measured in rats by determining the dosage; from tissue; host or cells: living rat, i.v. dosing; read-out blood pressure (isoprenaline-induced depressor response)
T2 sequence (P10608 whole entry): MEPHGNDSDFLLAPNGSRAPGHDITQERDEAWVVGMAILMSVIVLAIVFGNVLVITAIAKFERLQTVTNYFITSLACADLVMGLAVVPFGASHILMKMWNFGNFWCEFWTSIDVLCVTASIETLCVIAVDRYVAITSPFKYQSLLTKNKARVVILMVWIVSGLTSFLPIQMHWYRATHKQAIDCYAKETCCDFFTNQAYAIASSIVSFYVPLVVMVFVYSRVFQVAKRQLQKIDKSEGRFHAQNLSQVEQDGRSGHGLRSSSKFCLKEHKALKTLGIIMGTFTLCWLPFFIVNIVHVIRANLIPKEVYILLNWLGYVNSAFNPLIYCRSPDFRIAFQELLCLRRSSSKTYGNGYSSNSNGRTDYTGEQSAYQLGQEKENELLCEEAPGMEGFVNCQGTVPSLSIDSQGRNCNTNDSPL

[3] = rats, i.v., dosage for 50% reduction in isoprenaline-induced tachycardia

ED50 [1, 3]	ED50 [2]	SMILES	ED50 [1]
0.004 mg/kg	2.43 mg/kg	CC(C)NCC(O)COc1ccc(OCn2cc(Cl)cn2)cc1 (stereo not drawn) [B]	
0.05 mg/kg	6.5 mg/kg	CC(C)NCC(O)COc1ccc(OCCn2cccn2)cc1 (stereo not drawn) [A]	
		CC(C)NCC(O)COc1ccc(CC(N)=O)cc1 (stereo not drawn) [Atenolol, atenolol, reference compound]	0.091 mg/kg
0.011 mg/kg	> 2 mg/kg	CC(C)NCC(O)COc1ccc(OCn2nccn2)cc1 (stereo not drawn) [C]	
0.014 mg/kg	> 2 mg/kg	CC(C)NCC(O)COc1ccc(OCCn2nccn2)cc1 (stereo not drawn) [D]	
